Source: patent publication US20060084697A1, “Pi3k antagonists as radiosensitizers” (priority 2002, published 2006)

Key:
Akt [1] = experiment: Western immunoblot of radiation-induced Akt phosphorylation in endothelial cells; assay type: cell-based; conditions: for radiation-induced activation of Akt: irradiated vascular endothelium, summary statement
Protocol: Broad spectrum RTK inhibitors were tested for their abilities to attenuate radiation-induced phosphorylation of Akt. SU6668, a tyrosine kinase inhibitor of VEGFR, PDGFR, FGFR, and c-Kit, was added to endothelial cells prior to irradiation. Western immunoblots using phospho-specific antibodies to phosphorylated Akt (P-Akt) were prepared.
(§1) The role of RTKs in radiation-induced activation of the Akt signaling pathway was examined by studying a panel of tyrosine kinase inhibitors including PDGF receptor antagonists in primary culture endothelial cells. PDGF receptor antagonists including SU6668, SU11248, and STI571, attenuated radiation-induced phosphorylation of both Akt and Erk. […] Similar efficacy in blocking Erk1/2 phosphorylation in irradiated endothelial cells was found.

Akt [2] = experiment: Western blot of radiation-induced Akt phosphorylation in HUVEC; assay type: cell-based, human
Excerpt: HUVEC cells were obtained from Clonetics and were maintained in EBM-2 medium supplemented with EGM™-2MV SINGLEQUOTS® (Bio-Whittaker, Inc., Walkersville, Md., United States of America). An Eldorado-8 Cobalt-60 teletherapy unit (Atomic Energy of Canada Limited, Mississauga, Ontario, Canada) was used to irradiate endothelial cell cultures at a dose rate of 0.84 Gy per minute. Delivered doses ranging from 0 to 12 Gy were verified by use of thermoluminescence detectors.
In order to determine if Akt is phosphorylated in response to irradiation, cultured HUVEC cells were serum starved for 4 hours, exposed to irradiation, and the phosphorylation of Akt was examined in cell extracts by Western blotting. Total cellular protein was extracted after radiation treatment as follows. Cells were counted and then washed with iced-cold PBS twice before the addition of lysis buffer (M-PER™ mammalian protein extraction reagent; Pierce Chemical Company, Rockford, Ill., United States of America; or 20 mM Tris, 150 mM NaCl, 1 mM EDTA, 1% Triton X-100, 2.5 mM sodium pyrophosphate, 1 mM phenylmethylsulphonyl fluoride (PMSF), and […] Leupeptin (Roche Molecular Biochemicals, Indianapolis, Ind., United States of America)). Protein concentrations were quantified using the Biorad method (Bradford, 1976). 50 μg protein was loaded into each well of an 8% sodium dodecyl […]-polyacrylamide gel electrophoresis (SDS-PAGE) gel and separated by electrophoresis. The proteins were subsequently transferred onto 0.45 μm nitrocellulose membranes. Membranes were blocked by incubation for 2 hours at room temperature in phosphate buffered saline-Triton (PBST: 0.9% NaCl, 0.3% Triton X-100, pH 7.4) containing 10% nonfat dry milk.
The presence of Akt protein on the membrane was determined as follows. The membranes were incubated with a 1:1000 dilution of rabbit antibody directed against either phosphorylated (Ser473) or non-phosphorylated human Akt overnight at 4° C. Rabbit antibodies were obtained from Cell Signaling Technology, Beverly, Mass., United States of America. The blots were then washed with PBST to remove unbound rabbit antibodies. The washed blots were then incubated for 1 hour at room temperature with a donkey anti-rabbit IgG secondary antibody (Amersham Biosciences, Piscataway, N.J., United States of America) diluted 1:1000 in PBST. The blots were again washed with PBST to remove unbound donkey antibodies. The presences of both phosphorylated and non-phosphorylated human Akt were determined by chemiluminescent detection of donkey anti-rabbit/rabbit anti-human Akt complexes using the ECL™ detection system (Amersham Biosciences) according to the manufacturer's protocol, followed by autoradiography. […]

Erk1/2 = experiment: Radiation-induced Erk phosphorylation in endothelial cells; assay type: cell-based; conditions: for radiation-induced phosphorylation of Erk: primary culture endothelial cells (Example 16)
Protocol: Phosphorylation of MEK and Erk proteins was also investigated. Erk1/2 was activated following a single 3 Gy dose of irradiation. Erk was phosphorylated within 15 minutes, which resolved within 60 minutes. SU6668 is a broad spectrum inhibitor of split kinase domain RTKs, including Flk-1, Flt-1, PDGFR, fibroblast growth factor receptor (FGFR), and c-Kit (Mendel et al, 2003).
as §1

HUVECs = experiment: Apoptotic nuclei in HUVEC, SU11248 and 6 Gy; assay type: cell-based, human; conditions: 24 hours
Protocol: To determine whether broad spectrum RTK inhibition enhances the cytotoxic effects of radiation on vascular endothelium, SU11248 was added 30 minutes prior to irradiation. HUVECs were treated with vehicle control, and either 100 nM SU11248 orvehicle combined with 6 Gy. […] Untreated control cells show 2% apoptotic nuclei as compared to 7 and 8% after treatment with SU11248 or radiation, respectively (p>0.1). […] To determine whether enhanced apoptotic response in endothelial cells treated with SU11248 results in reduced clonogenic cell survival, HUVEC were subcultured and colony formation was quantified.

tumor endothelium = experiment: TUNEL and vWF co-staining of tumor sections; assay type: in vivo
Excerpt: To determine whether SU11248 interacts with radiation through the induction of apoptosis in tumor endothelium, TUNEL staining of tumor sections was utilized. Tumor sections were co-stained for the endothelial marker von Willebrand factor (vWF) and TUNEL.

tumors [3] = experiment: Power Doppler tumor blood flow, SU11248 and radiation; assay type: in vivo; conditions: p<0.053
Excerpt: To determine whether prolonged growth delay correlated with reduction in tumor blood flow, amplitude modulated Power Doppler was used to monitor blood flow. Reduced blood flow in tumors treated with SU11248 and radiation correlated with improved tumor growth delay.

PDGFRβ = experiment: Phospho-PDGFRβ immunohistochemistry of GL261 tumors; assay type: in vivo, C57BL6 mice; conditions: administered one hour prior to 3 Gy
Excerpt: To determine to the level of phosphorylation of PDGF receptor, GL261 mouse tumor models were sectioned and stained. A phospho-specific antibody to PDGFRβ Tyr751 (Cell Signaling Technology, Beverly, Mass., United States of America) was used. Tumors produced by injecting GL261 murine glioma cells into the hind limb of C57BL6 mice were stained for phospho-PDGFRβ and visualized using immunohistochemistry. Phospho-PDGFRβ staining was graded as 2+ relative to staining in negative controls.
To determine whether cytotoxic therapy alters PDGFRβ phosphorylation, the tumor was irradiated (3 Gy) and snap frozen following irradiation. […] Positive staining for phosphorylated PDGFR was found in endothelium and tumor stroma.
Western immunoblots were performed to verify radiation induced an increase in phosphorylation of PDGFRβ. Protein extracted from irradiated HUVEC had increased phosphorylation of PDGFRβ.

LLC hind limb tumors = experiment: Tumor growth delay, LLC hind limb tumors; assay type: in vivo, mice
Protocol: (§2) Destruction of tumor vasculature results in ischemia, which could reduce radiosensitivity of tumors. To determine whether SU11248 enhances tumor growth delay in irradiated tumors, mice bearing LLC and GL261 hind limb tumors were treated with intraperitoneal injection of 40 mg/kg SU11248 or control vehicle 30 minutes prior to each 3 Gy dose of radiation for a total of seven administrations. Both the inhibitor and radiation were discontinued after day 8. Time to doubling of LLC tumor size was 5, 6, 8 and 16 days for vehicle, SU11248, vehicle+21 Gy, and SU11248+21 Gy, respectively.

tumors [4] = experiment: Maintenance SU11248 after radiation, tumor growth delay; assay type: in vivo
Protocol: Upon the discontinuation of therapy, tumors rapidly regrow. To determine whether maintenance of SU11248 beyond the completion of radiation improved growth delay, this RTK inhibitor was administered twice daily continuously in groups treated with radiation alone or SU11248 and radiation. Beginning after day 8, three groups (drug alone, radiation+vehicle, and combined therapy) were maintained with twice daily intraperitoneal administrations of 20 mg/kg SU11248 for an additional 7 days. Maintenance treatment was discontinued after day 17, and subsequently resumed after four days of drug holiday.

HUVEC cells [5] = experiment: Clonogenic survival analysis of HUVEC; assay type: cell-based, human; conditions: HUVEC treated with SU11248 prior to irradiation; p<0.05
Protocol: The ability of PI3K antagonist to suppress the clonogenic potential of HUVEC cells treated with radiation was assayed by clonogenic survival analysis. The ability of HUVEC cells treated with LY294002 30 minutes prior to irradiation to form colonies was compared to that of HUVEC cells treated with either radiation or LY294002 alone, and also to that of untreated HUVEC cells. […] Briefly, groups of three HUVEC culture plates were treated at each of four radiation dose levels: 2, 4, 6, and 8 Gy, either with or without prior treatment with PI3K antagonists as described in Example 2. After treatment with radiation and/or antagonists, cells were trypsinized, counted by hemocytometer, and subcultured into fresh medium. After 14 days, the cells were fixed with cold methanol and stained with 1% methylene blue. Colonies with greater than 50 cells were counted and the surviving fraction was determined.

GL261 hind limb tumors = experiment: Tumor growth delay, GL261 hind limb tumors, SU11248; assay type: in vivo, mice; conditions: SU11248 prior to daily 3 Gy fractions, p<0.05
Protocol: as §2

tumor vasculature = experiment: Intravital tumor vascular window, vascular length density, SU11248; assay type: in vivo, mice
Protocol: Growth factors produced by tumors could enhance the viability of tumor vascular endothelium. To determine whether SU11248 enhances radiation-induced destruction of tumor vasculature, SU11248 was administered to mice prior to irradiation with 3 Gy. Tumor vascular linear density was measured by use of intravital tumor vascular window. […] Five mice were treated in each of the treatment groups, and the vascular length density after treatment was quantified. Mean vascular length densities over four days are shown as a bar graph.

HUVEC cells [6] = experiment: Apoptotic nuclei in HUVEC, H&E staining; assay type: cell-based, human; conditions: wortmannin 4 nM or LY294002 2 μM, 24 hours
Protocol: To determine whether PI3K antagonists enhance the activities of intrinsic cell death mechanisms induced by irradiation, apoptosis in HUVEC cells was studied following PI3K inhibition. HUVEC cells were treated with wortmannin (4 nM) or with LY294002 (2 μM) as described in Example 2. Cells were treated 30 minutes later with 3 Gy of ionizing radiation. Cultures were stained 24 hours later with hematoxylin and eosin (H&E) to reveal apoptotic nuclei. Stained cells were then examined by light microscopy. For each treatment group, four high power fields (40× objective) were examined, and both the number of cells with apoptotic nuclei and the total number of cells were determined. From these numbers, the percentage of apoptotic cells for each group was calculated.

[7] = primary culture endothelial cells (Example 16)
[8] = added to endothelial cells prior to irradiation (Example 15)

O=c1c(-c2ccc(O)cc2)coc2cc(O)cc(O)c12 [Genistein, 4′,5,7-trihydroxyisoflavone]
radiation-induced activation of Akt (Akt [1]): attenuates

CCCCCCCCCCCCCC(=O)N[C@H](C)[C@@H](O)c1ccccc1 [MAPP]
Akt phosphorylation in response to 3 Gy irradiation (Akt [2]; antagonists added to HUVEC in culture (Example 18)): did not attenuate

Cc1ccc(NC(=O)c2ccc(CN3CCN(C)CC3)cc2)cc1Nc1nccc(-c2cccnc2)n1 [STI571]
radiation-induced phosphorylation of Erk (Erk1/2): attenuated
radiation-induced phosphorylation of Akt (Akt [1]; [7]): attenuated

Cc1cc(C)c(/C=C2\C(=O)Nc3ccccc32)[nH]1 [SU5416]
radiation-induced phosphorylation of Akt (Akt [1]; [8]): did not attenuate

Cc1[nH]c(C=C2C(=O)Nc3ccccc32)c(C)c1CCC(=O)O [SU6668, 3-[2,4-dimethyl-5-(2-oxo-1,2-dihydro-indol-3-ylidenemethyl)-1H-pyrrol-3-yl]-propionic acid]
Erk 1/2 phosphorylation (Erk1/2; added 30 minutes prior to irradiation, 3 Gy, did not entirely eliminate activation): attenuated
radiation-induced phosphorylation of Erk (Erk1/2): attenuated
radiation-induced phosphorylation of Akt (Akt [1]; [8]): blocked
radiation-induced activation of Akt (Akt [1]): attenuate
radiation-induced phosphorylation of Akt (Akt [1]; [7]): attenuated

CCN(CC)CCNC(=O)c1c(C)[nH]c(/C=C2\C(=O)Nc3ccc(F)cc32)c1C [SU11248]
endothelial cells with apoptotic nuclei (HUVECs; 100 nM SU11248 30 minutes prior to 6 Gy): 21%
endothelial cells with apoptotic nuclei (HUVECs; 100 nM SU11248 alone, untreated 2%): 7%
apoptotic cells in tumor sections (tumor endothelium; SU11248 alone): could not be detected
apoptotic cells in tumor sections (tumor endothelium; radiation and SU11248, 24 hours following treatment, no apoptotic tumor cells): TUNEL positive endothelial cells
tumor blood flow compared to radiation alone (tumors [3]): approached significant reduction
radiation-induced PDGFR phosphorylation (PDGFRβ): markedly attenuated
time to doubling of LLC tumor size (LLC hind limb tumors; 40 mg/kg i.p. 30 minutes prior to each 3 Gy dose, 21 Gy total, vehicle+21 Gy 8 days): 16 days
time to doubling of LLC tumor size (LLC hind limb tumors; 40 mg/kg i.p., seven administrations, no radiation, vehicle 5 days): 6 days
tumor growth delay compared to either agent alone (LLC hind limb tumors; LLC, SU11248 prior to daily 3 Gy fractions, p<0.05): significant increase
growth to 4-fold that of day 0 tumors (tumors [4]; maintenance 20 mg/kg i.p. twice daily for 7 days after day 8, p<0.05 in all groups): significantly delays
tumor growth after re-initiation of SU11248 (tumors [4]; re-initiation at day 21 after four days of drug holiday): second phase of tumor growth delay
radiation-induced phosphorylation of Erk (Erk1/2): attenuated
clonogenic survival compared to radiation alone (HUVEC cells [5]): significant reduction
tumor growth delay compared to either agent alone (GL261 hind limb tumors): significant increase
radiation-induced activation of Akt (Akt [1]): attenuate
radiation-induced phosphorylation of Akt (Akt [1]; [7]): attenuated
vascular length density, % of that at 0 hour (tumor vasculature; SU11248 alone): 84%
vascular length density, % of that at 0 hours (tumor vasculature; SU11248 followed by 3 Gy, within 72 hours, p<0.01): 8%

COC[C@H]1OC(=O)c2coc3c2[C@@]1(C)C1=C(C3=O)[C@@H]2CCC(=O)[C@@]2(C)C[C@H]1OC(C)=O [wortmannin, Wortmannin]
total Akt levels (Akt [2]; HUVEC, wortmannin 4 nM or LY294002 2 μM): no effect
apoptotic nuclei, % of cells (HUVEC cells [6]; HUVEC pretreated 30 minutes before 3 Gy): 17%
apoptotic cells (HUVEC cells [6]; unirradiated HUVEC): 3%
